Assay results taken from patent US20180303830A1, “CANCERS EXPRESSING CCR5 AND METHODS OF TREATMENT OF SAME” (THOMAS JEFFERSON UNIVERSITY, priority 2015, published 2018).

How the values were obtained:
[1] = tested on: basal-like breast cancer model; experiment: In vivo metastasis in a basal-like breast cancer model; design: species or system mice
Text: Chemokine CCL5 and its receptor CCR5 play a significant role in cancer progression and metastasis. Metastasis is the primary cause of death in patients with breast cancer. No effective treatments currently exist that are directed specifically to the metastatic process. There is evidence that the CCR5 receptor is expressed in a subset of human breast cancers. Importantly, embodiments disclosed herein support that CCR5 inhibitors previously developed and FDA approved for treatment of HIV, can effectively block breast cancer metastasis in preclinical models, thereby providing for an effective treatment of said metastatic breast cancers. The repurposing of drugs for alternative use in cancer metastasis, drugs that were previously approved by the FDA, may provide a more rapid solution for this deadly disease. Indeed, CCR5 inhibition by the FDA approved CCR5 antagonists Maraviroc and Vicriviroc reduced in vivo metastasis in a basal-like breast cancer model.
Indeed, in studies described herein, CCR5 is sufficient to induce invasiveness of breast cancer cells into matrigel, and metastasis to the lungs of mice. Accordingly, two distinct CCR5 inhibitors, maraviroc and vicriviroc, blocked CCR5 signaling and thereby block migration, invasion and metastasis in mice. […] The dose of CCR5 inhibitor used in these mouse models was the same as the dose used in patients for HIV.

SUM159 cells [2] = experiment: Lung metastasis of SUM159 cells in SCID mice, photon flux (IVIS); type: in vivo
Text: The CCR5 antagonist, Maraviroc, was previously approved by the US Food and Drug Administration (FDA) for the use in treatment-nave adult […] with CCR5-trophic HIV. In order to determine the role endogenous CCR5 within SUM159 cells in lung metastasis, cells were introduced into SCID immune deficient mice, and tumor volume characterized using the IVIS system. […] (p<0.0001).
FIG. 7. Endogenous CCR5 promotes lung metastases in mice. FIG. 7A Representative timed photon emission of mice injected with SUM159 cells treated with either control or Maraviroc (at 14 mg/kg mouse body, time as shown in weeks). FIG. 7B Mean±SEM of photon flux for 6 animals in control group and 7 animals in maraviroc treatment group shown in 5 weeks. Maraviroc treatment reduces mean lung tumor volume by 98% which detected by photon flux ((3.01±1.16)×10^7 vs (1.05±0.44)×10^8, p=0.063 with Mann-Whitney Test).

SUM159 cells [3] = experiment: Phospho-γH2AX Western-blot of doxorubicin induced DNA damage in SUM159 cells; type: cell-based, human; conditions: for doxorubicin induced phospho-γH2AX (DNA damage): 100 μM, SUM159 cells, doxorubicin treatment; for effect on CCR5-mediated DNA repair (phospho-γH2AX western-blot and DNA repair reporter assay): breast cancer cells overexpressing CCR5, doxorubicin and γ-radiation induced DNA damage
Text: The chemokine receptor CCR5 is normally expressed on the surface of immune cells and served as HIV co-receptor. […] Compared with CCR5− cells, the CCR5+ cells were enriched with DNA damage/repair gene signature. […] Based on the existing theory that the resistance of cancer cells to the chemotherapy and radiation therapy caused by the existence of cancer stem cells, the inhibition of CCR5 by CCR5 antagonists will sensitize the response of breast cancer cells to chemotherapy and radiation therapy, therefore increase the efficiency of DNA damage inducing chemotherapy treatment for CCR5 expressing cancers.
FIG. 9. […] FIG. 9A The CCR5 stable-transfected and vector-control SUM159 cells were illuminated with 6.5 Gy of γ-radiation. The samples were collected at 0.5, 3 and 24 hours after y-radiation. The recruitment of phosphor-γH2AX and the reduction of abundance were faster in CCR5-transfected cells than vector-control cells. FIG. 9B The CCR5 stable-transfected and vector-control SUM159 cells were treated with doxorubicin. […] FIG. 9C CCR5 antagonist increased DNA damage in SUM159 cells. SUM159 cells treated with CCR5 antagonist, Maraviroc and Vicriviroc, both at 100 μM. DNA damage was induced by doxorubicin treatment. There are more doxorubicin induced phospho-γH2AX in Marviroc and Vicriviroc treated groups.

FC-IBC-02 cells = experiment: Boyden chamber migration and invasion assay in FC-IBC-02 cells; type: cell-based, human; conditions: 100 μM, 48 hrs, compared to control; for invasion of FC-IBC-02 cells: matrigel-coated membrane; for migration of FC-IBC-02 cells: noncoated membrane
Procedure: The effects of CCR5 antagonists (Maraviroc and Vicriviroc) on cell migration and invasion in vitro were examined using matrigel-coated Boyden chamber assay in FC-IBC-02 cells, which are triple-negative, basal-like, cancer stem cell phenotype, and rapidly developed primary tumors and metastasis in vivo. Cells were treated by Maraviroc and Vicriviroc at 100 μM and support the conclusion that CCR5 is highly expressed in basal-like human IBC cells.
In FIG. 3, CCR5 antagonists Maraviroc and Vicriviroc suppress the migration and invasion of FC-IBC-02 cells. FIGS. 3A and 3B depict control and CCR5 antagonists treated cells at equal number were seeded onto the noncoated membrane (migration) and matrigel-coated membrane (invasion). After incubating 48 hrs. the cells crossed the membrane were stained with 0.05% crystal violet. FIGS. 3C and 3D, quantitation of 3A and 3B compared to controls was indicated.

Row | SMILES | in vivo metastasis [1] | photon flux, Mean±SEM (SUM159 cells [2]; 14 mg/kg, 5 weeks, 7 animals, p=0.063 Mann-Whitney vs control) | reduction of mean lung tumor volume detected by photon flux (SUM159 cells [2]; 14 mg/kg, 5 weeks, vs control) [%] | increase in breast cancer lung metastases (photon flux) in the control group compared to the treated group (SUM159 cells [2]; SUM159 cells in SCID mice, administered orally) [fold] | percentage of mice with detectable lung metastases (SUM159 cells [2]; SUM159 cells in SCID mice, administered orally, p<0.0001) | doxorubicin induced phospho-γH2AX (DNA damage) (SUM159 cells [3]) | effect on CCR5-mediated DNA repair (phospho-γH2AX western-blot and DNA repair reporter assay) (SUM159 cells [3]) | invasion of FC-IBC-02 cells (FC-IBC-02 cells) | migration of FC-IBC-02 cells (FC-IBC-02 cells)
1 | Cc1nnc(C(C)C)n1[C@@H]1C[C@H]2CC[C@@H](C1)N2CC[C@H](NC(=O)C1CCC(F)(F)CC1)c1ccccc1 [Maraviroc, 4,4-difluoro-N-{(1S)-3-[3-(3-isopropyl-5-methyl-4H-1,2,4-triazol-4-yl)-8-azabicyclo[3.2.1]oct-8-yl]-1-phenylpropyl}cyclohexanecarboxamide] | reduced | (3.01±1.16)×10^7 | 98 | 15 | significantly reduced | more | abolished these effects | suppress | suppress
2 | COCC(c1ccc(C(F)(F)F)cc1)N1CCN(C2(C)CCN(C(=O)c3c(C)ncnc3C)CC2)C[C@@H]1C (stereo partly drawn) [Vicriviroc, 5-({4-[(3S)-4-{2-methoxy-1-[4-(trifluoromethyl)phenyl]ethyl}-3-methylpiperazin-1-yl]-4-methylpiperidin-1-yl}carbonyl)-4,6-dimethylpyrimidine] | reduced | – | – | – | – | more | abolished these effects | suppress | suppress
